Measurements published in paper PMC1930153, “Engineering the Melanocortin-4 Receptor to Control Constitutive and Ligand-Mediated Gs Signaling In Vivo” (PLoS ONE, 2007).
Each block holds one molecule with its values, some of them ahead of it.

Legend:
Type in all cases: cell-based
[1] = molecular target: T1, D122A-MC4R (Rm2) (Homo sapiens, UniProt P32245, D122A); assay: cAMP assay, D122A MC4R (Rm2) in HEK293 cells
T1 construct: prolactin signal peptide (N); green fluorescent protein (N); expressed in transfected cells; host or cells: HEK293
Procedure: (§1) HEK293 cells were maintained in Dulbecco's modified Eagle's medium supplemented with 10% fetal bovine serum containing L-glutamine. […] For the internalization assays, stable cell lines expressing wild-type or RASSL-MC4R were generated by G418-mediated selection (10 µg/ml) of clones expressing the neomycin-resistance gene cotransfected with MC4R. Stable cell lines were maintained by selection with 5 µg/ml G418.
(§2) cAMP production was measured with an ultra sensitive enzymatic cAMP assay (CatchPoint, Molecular Devices, Sunnyvale, CA). Transiently transfected cells were plated at 1×10^5/well into 96-well plates coated with poly-D-lysine (Sigma). Forty-eight h after transfection, cells were rinsed in Krebs-Ringer bicarbonate buffer containing glucose (Sigma) and incubated in pre-stimulation buffer containing 0.75 mM 3-isobutyl-1-methylxanthine in the same buffer for 10 min at room temperature. […] The cells were lysed, and cAMP accumulation was measured according to the CatchPoint protocol. cAMP generated under the different experimental conditions was interpolated from a cAMP standard curve for each experiment. Four replicates were used for each condition, and all experiments were repeated at least three times. Emax and EC50 values were calculated with SoftMax Pro. cAMP measurements were performed on transiently transfected cells.

[2] = molecular target: T2, L106P-MC4R (Rm1) (Homo sapiens, UniProt P32245, L106P); assay: cAMP assay, L106P MC4R (Rm1) in HEK293 cells
T2 construct: prolactin signal peptide (N); green fluorescent protein (N); expressed in transfected cells; host or cells: HEK293
Procedure: as §1, §2

[3] = molecular target: T3, wild-type MC4R (Homo sapiens, UniProt P32245); assay: cAMP assay, wild-type MC4R in transiently transfected HEK293 cells
T3 construct: prolactin signal peptide (N); expressed in transfected cells; host or cells: HEK293
Procedure: as §1, §2

[4] = molecular target: T3, wild-type MC4R; assay: Cell-surface expression ELISA, transiently transfected HEK293 cells, wild-type MC4R; conditions: WT MC4R, transient transfection; α-MSH 1 µM
Procedure: (§3) HEK293 cells were maintained in Dulbecco's modified Eagle's medium supplemented with 10% fetal bovine serum containing L-glutamine. Wild-type and mutant MC4R were transfected into HEK 293 cells with Lipofectamine (Invitrogen). For the internalization assays, stable cell lines expressing wild-type or RASSL-MC4R were generated by G418-mediated selection (10 µg/ml) of clones expressing the neomycin-resistance gene cotransfected with MC4R. Stable cell lines were maintained by selection with 5 µg/ml G418.
(§4) Cell-surface expression of receptors was measured with an enzyme-linked immunosorbent assay (ELISA) that detects the extracellular FLAG tag. Transiently transfected cells were plated at 1×10^5/well into 96-well plates coated with poly-D-lysine (Sigma). […] Forty-eight h after transfection, cells were fixed in 4% paraformaldehyde (Sigma) for 10 min at 4°C. After two washes in phosphate-buffered saline, the cells were incubated in 1 µg/ml M1 anti-FLAG antibody (Sigma) for 2 h at room temperature, washed twice in phosphate-buffered saline, and incubated for 1 h at room temperature with horseradish peroxidase–conjugated goat-anti-mouse (1∶1000, BioRad, Chicago, IL). […] After 15–60 min, the optical density was read at 405 nm in a spectrophotometer. […]

[5] = molecular target: T4, MC4R G98R (Homo sapiens, UniProt P32245, G98R); assay: cAMP assay, G98R MC4R mutant in HEK293 cells
T4 construct: prolactin signal peptide (N); green fluorescent protein (N); expressed in transfected cells; host or cells: HEK293
Procedure: as §3
as §2, with “Four replicates were used for each condition, and all experiments were repeated at least three times.” left out

[6] = molecular target: T5, MC4R E100A (Homo sapiens, UniProt P32245, E100A); assay: cAMP assay, E100A MC4R mutant in HEK293 cells
T5 construct: prolactin signal peptide (N); green fluorescent protein (N); expressed in transfected cells; host or cells: HEK293
Procedure: as §3
as §2, with “Four replicates were used for each condition, and all experiments were repeated at least three times.” left out

[7] = molecular target: T6, Rm2 (D122A) (Homo sapiens, UniProt P32245, D122A); assay: Receptor internalization (cell-surface FLAG ELISA), HEK293 cells stably expressing Rm2
T6 construct: prolactin signal peptide (N); green fluorescent protein (N); expressed in transfected cells; host or cells: HEK293
Procedure: as §3, §4

[8] = molecular target: T3, wild-type MC4R; assay: Receptor internalization (cell-surface FLAG ELISA), HEK293 cells stably expressing wild-type MC4R; conditions: WT MC4R, 2-h exposure
Procedure: as §3, §4

[9] = molecular target: T7, MC4R S127L (Homo sapiens, UniProt P32245, S127L); assay: cAMP assay, S127L MC4R mutant in HEK293 cells
T7 construct: prolactin signal peptide (N); green fluorescent protein (N); expressed in transfected cells; host or cells: HEK293
Procedure: as §3
as §2, with “Four replicates were used for each condition, and all experiments were repeated at least three times.” left out

[10] = molecular target: T8, MC4R D126A (Homo sapiens, UniProt P32245, D126A); assay: cAMP assay, D126A MC4R mutant in HEK293 cells
T8 construct: prolactin signal peptide (N); green fluorescent protein (N); expressed in transfected cells; host or cells: HEK293
Procedure: as §3
as §2, with “Four replicates were used for each condition, and all experiments were repeated at least three times.” left out

[11] = molecular target: T9, MC4R I102S (Homo sapiens, UniProt P32245, I102S); assay: cAMP assay, I102S MC4R mutant in HEK293 cells
T9 construct: prolactin signal peptide (N); green fluorescent protein (N); expressed in transfected cells; host or cells: HEK293
Procedure: as §3
as §2, with “Four replicates were used for each condition, and all experiments were repeated at least three times.” left out

[12] = molecular target: T10, Rm1 (L106P) (Homo sapiens, UniProt P32245, L106P); assay: Receptor internalization (cell-surface FLAG ELISA), HEK293 cells stably expressing Rm1
T10 construct: prolactin signal peptide (N); green fluorescent protein (N); expressed in transfected cells; host or cells: HEK293
Procedure: as §3, §4

[13] = molecular target: T11, MC4R N97D (Homo sapiens, UniProt P32245, N97D); assay: cAMP assay, N97D MC4R mutant in HEK293 cells
T11 construct: prolactin signal peptide (N); green fluorescent protein (N); expressed in transfected cells; host or cells: HEK293
Procedure: as §3
as §2, with “Four replicates were used for each condition, and all experiments were repeated at least three times.” left out

Activation (cAMP release) in words ([1]; Rm2, increasing concentrations): no activation | Activation (cAMP release) in words ([2]; Rm1, increasing concentrations): no activation | Activation (cAMP release) in words ([3]; WT MC4R, increasing concentrations): full activation
Molecule: CSCC[C@H](NC(=O)[C@H](CCCNC(=N)N)NC(=O)[C@H](Cc1ccc(O)cc1)NC(=O)[C@@H]1CCCN1C(=O)CNC(=O)[C@H](CCC(=O)O)NC(=O)[C@H](CC(=O)O)NC(=O)[C@H](CCCCN)NC(=O)[C@H](CCCCN)NC(=O)[C@H](CCC(=O)O)NC(=O)[C@H](C)N)C(=O)N[C@@H](CCC(=O)O)C(=O)N[C@@H](Cc1c[nH]cn1)C(=O)N[C@@H](Cc1ccccc1)C(=O)N[C@@H](CCCNC(=N)N)C(=O)N[C@@H](Cc1c[nH]c2ccccc12)C(=O)NCC(=O)N[C@@H](CO)C(=O)N1CCC[C@H]1C(=O)N1CCC[C@H]1C(=O)N[C@@H](CCCCN)C(=O)N[C@@H](CC(=O)O)C(=O)O [β-MSH]

Antagonism when co-administered with THIQ ([2]; Rm1, cAMP): full antagonist
Molecule: agouti-related peptide (SSRRCVRLHESCLGQQVPCCDPCATCYCRFFNAFCYCRKLGTAMNPCSRT; UniProt O00253 83-132, looked up) [AGRP]
Effect on cell-surface expression in words [4]: stabilized receptor expression on the cell surface

Molecule: O=C(N[C@H](Cc1ccc(Cl)cc1)C(=O)N1CCC(Cn2cncn2)(C2CCCCC2)CC1)[C@H]1Cc2ccccc2CN1 (relative stereo) [THIQ]
Emax (% of WT) ([1]; cAMP, D122A (Rm2)): 90.3±6.2 % of WT | Emax (% of WT) [5]: 2.6±0.6 % of WT | Emax (% of WT) [6]: 44.54±4.9 % of WT | Decrease in cell-surface expression ([7]; Rm2, 1 µM ligand): about 20% | Receptor sequestration/internalization in words ([7]; Rm2, 2-h exposure, increasing concentrations): did not cause sequestration | Internalization in words (time course) ([8]; 1 µM ligand): did not result in internalization | Receptor sequestration in words ([8]; increasing concentrations): did not cause sequestration | Emax (% of WT) ([2]; cAMP, L106P (Rm1)): 73.4±14.8 % of WT | Emax (% of WT) [9]: 21.7±3.5 % of WT | Emax (% of WT) [10]: 50.7±3.6 % of WT | Emax (% of WT) ([3]; cAMP, 2 h stimulation): 100 % of WT | Emax (% of WT) [11]: 49.2±2.2 % of WT | Internalization in words (time course) ([12]; Rm1, 1 µM ligand, 2-h exposure): did not internalize | Receptor sequestration/internalization in words ([12]; Rm1, 2-h exposure, increasing concentrations): did not cause sequestration | Emax (% of WT) [13]: 43.1±3.1 % of WT
